Results from PMC10476265, “Optimized LC-MS/MS Method for the Detection of ppCCK(21–44): A Surrogate to Monitor Human Cholecystokinin Secretion” (Journal of Proteome Research, 2023).
Where no end group is shown, it is not given here.

How the values were obtained:
[1] = test system: human duodenal organoid cultures; assay: Human duodenal organoid secretion assay: CCK8 and ppCCK(21–44) in supernatants and lysates by LC-MS/MS; assay type: cell-based; settings: 10 μM forskolin + 1 mM glucose vs 1 mM glucose alone, 1 h, 2D human intestinal organoids; similar for both peptides; n = 12 from six experiments in duplicate
Description: Human duodenal organoid cultures were established for secretion assays using our established protocol.[16] To improve peptide yield, the cultures were grown in a 6-well plate format, and 400 μL of secretion buffer (0.001% fatty acid-free BSA and 1 mM glucose in saline buffer[16]) was used in the experiments.
Method development, validation, and calibration/quantitation samples were prepared by spiking working solutions of CCK8, CCK33, and ppCCK(21–44) in organoid secretion buffer. For initial CCK detection, lysed organoid cultures were prepared using 6 M guanidine hydrochloride (aq) and snap-frozen prior to extraction.
Based on the experimental design results, the extraction of CCK peptides from organoid lysate and secretion samples was adjusted from previous methods,[16],[17] as per the following steps. […]
To assess CCK secretion, we cultured human intestinal organoids in 2D cultures[16] and collected supernatants and cell lysates after 1 h incubation in either 1 mM glucose or 1 mM glucose and 10 μM forskolin, a known strong stimulus for secretion of a number of gut hormones, including CCK.[17],[18] We were unable to reliably detect sulfated CCK8 in supernatants; however, desulfated CCK8 and ppCCK(21–44) were detected under both culture conditions. […]

[2] = test system: cholecystokinin (CCK8) (26–33), non-sulfated enzyme immunoassay kit; settings: reported for the kit; ref EK-069-04, Phoenix Peptide; cited from earlier work
Excerpt: (§1) A cholecystokinin (CCK8) (26–33), non-sulfated enzyme immunoassay kit (EK-069-04, Phoenix Peptide, Germany), with 100% reported cross-reactivity with sulfated and non-sulfated CCK8 as well as CCK33 and gastrin, was used for assay validation. The pooled human plasma potassium EDTA anticoagulant (K2EDTA, BioIVT, West Sussex, U.K.) from healthy controls was used as a matrix for the preparation of calibration standards during the clinical sample analysis.

[3] = test system: cholecystokinin (CCK8) (26–33), non-sulfated enzyme immunoassay kit; assay: Commercial CCK8 enzyme immunoassay (EK-069-04, Phoenix Peptide): detection and cross-reactivity; assay type: binding; settings: 50 to 750 pg/mL spiked in secretion buffer, SPE eluate dried and reconstituted in EIA buffer
Excerpt: as §1
We compared the performance of the LC-MS/MS method with a commercially available EIA (EK-069-04, Phoenix Peptide). CCK8 solutions were spiked at different concentrations either alone or in the presence of ppCCK(21–44) into secretion buffer, duplicate samples were extracted as described, and prior to EIA analysis, the SPE eluates were dried under nitrogen and reconstituted in EIA buffer. The concentrations were deduced alongside either extracted calibration curves for LC-MS/MS analysis or non-extracted standard curves as supplied in the EIA kit.

CCK1 receptor (CCK1R) = settings: statement of the introduction; cited from earlier work
Excerpt: Post-translational processing of preproCCK (ppCCK), including tyrosine-sulfation in the trans-Golgi network and subsequent proteolytic cleavage by prohormone convertases and carboxypeptidase E combined with C-terminal amidation by peptidylglycine α-amidating monooxygenase[5],[6] produces a number of different bioactive CCK peptides (Figure 1). For activation of the CCK1 receptor (CCK1R), which largely mediates the peripheral outcomes described above, sulfation of the CCK peptide is critical, and the bioactive products of ppCCK, named after the number of amino acids retained in the final produc ...

Molecule	cross-reactivity of the EIA kit [2] [%]	also measured
C=C[C@@]1(C)CC(=O)[C@]2(O)[C@@]3(C)[C@@H](O)CCC(C)(C)[C@@H]3[C@H](O)[C@H](OC(C)=O)[C@@]2(C)O1 [forskolin]		fold stimulation of CCK8 and ppCCK(21–44) secretion [1]: ~2.3 fold
CCK33: 33 amino acid bioactive CCK isoform (KAPSGRMSIVKNLQNLDPSHRISDRDYMGWMDF-NH2; ends and bridges not checked; UniProt P06307 71-103, looked up)	100	
[Pyr]-QPVPPADPAGSGLQRAEEAPRRQL-acid [ppCCK(21–44), N-terminal peptide fragment of proCCK, surrogate analyte for CCK secretion]		detection by EIA [3]: did not detect
gastrin: closely related peptide hormone sharing the bioactive C-terminus with CCK8	100	activity at CCK1R (CCK1 receptor (CCK1R)): no activity
non-sulfated CCK8: CCK8 without tyrosine sulfate, cross-reactant of the EIA kit	100	
